Measurements reported in article PMC6720094, “Comparative pharmacokinetics of oxyresveratrol alone and in combination with piperine as a bioenhancer in rats” (BMC Complementary and Alternative Medicine, 2019).
Read-outs that look alike come from different tables or passages of the source.

Experiments:
[1] = system: UGT; parameters: method as in PMID 3917507; conditions: mice ref 19, cited from earlier work
[2] = system: P–glycoprotein; parameters: method as in PMID 12130727; conditions: cited from earlier work
[3] = system: UGT; parameters: method as in PMID 17487234; conditions: cited from earlier work
[4] = system: male Wistar rats; assay: Tolerability in rats (AST, ALT, creatinine, physical appearance); type: in vivo, rat
Description: Rats weighing more than 400 g were enrolled in the pharmacokinetic experiments. All rats were placed into metabolic cages and fasted overnight before the pharmacokinetic experiments. The rats were divided randomly into four groups (n = 6 in each): oxyresveratrol 100 mg/kg p.o., oxyresveratrol 100 mg/kg plus piperine 10 mg/kg p.o., oxyresveratrol 10 mg/kg i.v., and oxyresveratrol 10 mg/kg plus piperine 1 mg/kg i.v. All test formulations were freshly prepared by dissolving the compounds in 40% DMSO/NSS to obtain clear solution. The preparations were administered by oral gavage or intravenous administration via the lateral tail vein. All rats were anaesthetized with 5% isoflurane by chamber induction method to prevent pain and injury during drug administration and blood collection. The blood collection was conducted at 0, 0.083 (5 min), 0.25 (15 min), 0.5 (30 min), 1, 2, 4, 8, 16 and 24 h in unconscious rats. For tissue collection, euthanization with overdose isoflurane > 10% by chamber induction method was conducted at 0.083 (5 min), 1, 2 and 4 h after oral gavage or intravenous administration, and death was confirmed by exsanguination. […] Plasma samples were collected at baseline (0 h) and 24 h from a subset of rats for determination of AST, ALT and creatinine concentrations, performed by Professional Laboratory Management Crop Co., Ltd. Determination of the creatinine level was performed by the chemiluminescence method, while AST and ALT determination was performed with a kinetic method and measured using an automated analyzer (Cobas 6000; Hoffmann–La Roche, Ltd.).

[5] = Tissue distribution, tissue to plasma ratio (Kp) in rats; type: in vivo
[6] = in vivo; conditions: rat
Description: Rats weighing more than 400 g were enrolled in the pharmacokinetic experiments. All rats were placed into metabolic cages and fasted overnight before the pharmacokinetic experiments. The rats were divided randomly into four groups (n = 6 in each): oxyresveratrol 100 mg/kg p.o., oxyresveratrol 100 mg/kg plus piperine 10 mg/kg p.o., oxyresveratrol 10 mg/kg i.v., and oxyresveratrol 10 mg/kg plus piperine 1 mg/kg i.v. All test formulations were freshly prepared by dissolving the compounds in 40% DMSO/NSS to obtain clear solution. The preparations were administered by oral gavage or intravenous administration via the lateral tail vein. […] Plasma samples were collected at baseline (0 h) and 24 h from a subset of rats for determination of AST, ALT and creatinine concentrations, performed by Professional Laboratory Management Crop Co., Ltd. Determination of the creatinine level was performed by the chemiluminescence method, while AST and ALT determination was performed with a kinetic method and measured using an automated analyzer (Cobas 6000; Hoffmann–La Roche, Ltd.). […]
The pharmacokinetic parameters were calculated by non–compartmental analysis using PK Solution 2.0 software (Summit Research Service). […] The absolute oral bioavailability of oxyresveratrol was calculated as (AUCp.o./dosep.o.)/(AUCi.v./dosei.v.). […]

[7] = physchem; conditions: %Recovery (stability)
[8] = rat, in vivo, cited from earlier work
[9] = rat, in vivo, ip, 40 mg/kg; cited from earlier work
[10] = system: P–glycoprotein; conditions: cited from earlier work
[11] = intravenous, oxyresveratrol 10 mg/kg (+ piperine 1 mg/kg in combination), postdose (24 h)
[12] = intravenous, oxyresveratrol 10 mg/kg (+ piperine 1 mg/kg in combination), predose (0 h) baseline
[13] = oral, oxyresveratrol 100 mg/kg (+ piperine 10 mg/kg in combination), postdose (24 h)
[14] = oral, oxyresveratrol 100 mg/kg (+ piperine 10 mg/kg in combination), predose (0 h) baseline

In the case of `O=C(/C=C/C=C/c1ccc2c(c1)OCO2)N1CCCCC1` [piperine, Piperine], the “Decrease of in vivo UGT activity” value ([1]; piperine 10 mg/kg p.o.) is given as 36%, the “Decrease of in vivo UGT activity” value ([1]; piperine 25 mg/kg p.o.) is given as 55% and the “Inhibition of P–glycoprotein” value [2] is given as “inhibit”. For the same compound, the “Hepatic microsomal activity of UGT in vitro” value [3] was “reduces”.
Compound `Oc1cc(O)cc(C=Cc2ccc(O)cc2O)c1` [Oxyresveratrol, 2,4,3′,5′–tetrahydroxystilbene] has an ALT [4, 11] of 5.80 ± 1.09 U/L, an AST [4, 11] of 45.40 ± 3.78 U/L and a Creatinine [4, 11] of 0.32 ± 0.08 mg/dL. It also gave an ALT [4, 12] of 5.00 ± 0.00 U/L, an AST [4, 12] of 42.00 ± 7.15 U/L and a Creatinine [4, 12] of 0.25 ± 0.15 mg/dL. The Physical appearance ([4]; male Wistar rats, pre-dose and post-dose (24 h), i.v. and oral) was “normal physical appearance”, the ALT [4, 13] was 6.83 ± 3.25 U/L and the AST [4, 13] was 40.83 ± 22.39 U/L. It also gave a Creatinine [4, 13] of 0.17 ± 0.01 mg/dL, an ALT [4, 14] of 9.40 ± 9.28 U/L and an AST [4, 14] of 32.40 ± 16.47 U/L. It also gave a Creatinine [4, 14] of 0.17 ± 0.01 mg/dL, a Kp ([5]; male, Wistar, in vivo, 100 mg/kg, rat, oral gavage, from 5 min to 4 h, read-out: Tissue to plasma ratio of oxyresveratrol, other internal organs (not stomach, small intestine)) of 1 to 100 and a Kp at 5 min ([5]; male, Wistar, rat, in vivo, iv) of 10 to 100. The “Oxyresveratrol level in the brain” value ([5]; rat, 1, 2 and 4 h after intravenous administration) was “Very low levels”, the dose excreted ([6]; Wistar, in vivo, iv, Percentage recovery of unchanged oxyresveratrol in urine) was 5 to 10% and the “Unchanged oxyresveratrol found in feces” value ([6]; 0 to 48 h after intravenous dosing) was under 1%. For the same compound, the “%Recovery (stability)” value (100 ng/mL) was 72.84%, the “%Recovery (stability)” value (400 ng/mL) was 70.43% and the recovery at 100 ng/mL [7] was 92.6%. The recovery at 400 ng/mL [7] was 86.3%, the recovery at 12 h, 10 ng/mL [7] was 63.5% and the recovery at 12 h, 100 ng/mL [7] was 73.5%. For the same compound, the recovery at 12 h, 400 ng/mL [7] was 68.2%, the recovery at 30 d, 10 ng/mL [7] was 72.4% and the recovery at 30 d, 100 ng/mL [7] was 85.8%. For the same compound, the recovery at 30 d, 400 ng/mL [7] was 81.1%, the Tmax ([8]; po) was “approximately 15 min” and the Absolute oral bioavailability [8] was 10–15%. For the same compound, the “Concentration reaching the brain” value [9] was “only a minimal concentration reached the brain” and the “P–glycoprotein substrate” value [10] was “substrate of P–glycoprotein”.
